In brackets after ≈: the same amount, converted by molar mass.
Experiments:
Assay type in all cases: cell-based
Aspergillus flavus [1] = assay: MIC, YAG medium; details: 24 h at 35° C, MIC banded into grades; for MIC: Aspergillus flavus, 24 h, read-out: MIC grade, A. flavus
In short: (§1)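 Spores harvested from 5-day Sabouraud agar cultures were inoculated at 1−2×10^4 cfu/mL into YAG medium (1% glucose, 1% ammonium chloride, 0.5% yeast extract) over doubling drug dilutions spanning 50-0.05 mg/L, or 0.5-0.0005 mg/L on repeat. After 24 h at 35° C, OD485 was read. MIC is the lowest concentration inhibiting growth >70% versus drug-free control, in mg/L.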

[2] = system: Aspergillus fumigatus AF210; assay: MIC, YAG medium; details: 24 h at 35° C, MIC banded into grades; for MIC: Aspergillus fumigatus, read-out: MIC grade, A. fumigatus 210
In short: as §1

[3] = system: Aspergillus fumigatus AF293; assay: MIC, YAG medium; details: 24 h at 35° C, MIC banded into grades; for MIC: Aspergillus fumigatus, read-out: MIC grade, A. fumigatus
In short: as §1

Aspergillus niger [4] = assay: MIC, YAG medium; details: 24 h at 35° C, MIC banded into grades; for MIC: Aspergillus niger, read-out: MIC grade, A. niger
In short: as §1

Aspergillus terreus AT49 [5] = assay: MIC, YAG medium; details: 24 h at 35° C, MIC banded into grades; for MIC: Aspergillus terreus, read-out: MIC grade, A. terreus 49
In short: as §1

Aspergillus terreus AT4 [6] = assay: MIC, YAG medium; details: 24 h at 35° C, MIC banded into grades; for MIC: Aspergillus terreus, read-out: MIC grade, A. terreus
In short: as §1

Aspergillus flavus [7] = assay: MIC, RPMI medium; details: MIC banded into grades; for MIC: Aspergillus flavus, read-out: MIC grade, A. flavus
In short: (§2)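 MIC taken as lowest drug level inhibiting growth by >80% relative to drug-free wells, read as OD at 485 nm after 24-48 h at 35° C. Organisms at 1−2×10^4 cfu/mL in RPMI (2% glucose, 0.135 M MOPS, pH 7.0) exposed to doubling dilutions spanning 50-0.05 mg/L.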

[8] = system: Aspergillus fumigatus AF210; assay: MIC, RPMI medium; details: for MIC: Aspergillus fumigatus, AF210, MIC banded into grades, read-out: MIC grade, A. fumigatus 210
In short: as §2

[9] = system: Aspergillus fumigatus AF293; assay: MIC, RPMI medium; details: for MIC: Aspergillus fumigatus, AF293, MIC banded into grades, read-out: MIC grade, A. fumigatus
In short: as §2

Aspergillus niger [10] = assay: MIC, RPMI medium; details: MIC banded into grades; for MIC: Aspergillus niger, read-out: MIC grade, A. niger
In short: as §2

Aspergillus terreus AT49 [11] = assay: MIC, RPMI medium; details: for MIC: Aspergillus terreus, AT49, MIC banded into grades, read-out: MIC grade, A. terreus 49
In short: as §2

Aspergillus terreus AT4 [12] = assay: MIC, RPMI medium; details: for MIC: Aspergillus terreus, AT4, MIC banded into grades, read-out: MIC grade, A. terreus
In short: as §2

Candida albicans = assay: MIC, RPMI medium; details: 24-48 h at 35° C., >80% growth inhibition, banded into grades; for MIC: Candida albicans
In short: as §2

Candida glabrata = assay: MIC, RPMI medium; details: 24-48 h at 35° C., >80% growth inhibition, banded into grades; for MIC: Nakaseomyces glabratus
In short: as §2

Candida krusei = assay: MIC, RPMI medium; details: 24-48 h at 35° C., >80% growth inhibition, banded into grades; for MIC: Pichia kudriavzevii
In short: as §2

Candida parapsilosis = assay: MIC, RPMI medium; details: 24-48 h at 35° C., >80% growth inhibition, banded into grades; for MIC: Lodderomyces parapsilosis
In short: as §2

Candida tropicalis = assay: MIC, RPMI medium; details: 24-48 h at 35° C., >80% growth inhibition, banded into grades; for MIC: Candida tropicalis
In short: as §2

MIC (Aspergillus flavus [1])	MIC [2]	MIC [3]	MIC (Aspergillus niger [4])	MIC (Aspergillus terreus AT49 [5])	MIC (Aspergillus terreus AT4 [6])	MIC (Aspergillus flavus [7])	MIC [8]	MIC [9]	MIC (Aspergillus niger [10])	MIC (Aspergillus terreus AT49 [11])	MIC (Aspergillus terreus AT4 [12])	MIC (Candida albicans)	MIC (Candida glabrata)	MIC (Candida krusei)	MIC (Candida parapsilosis)	MIC (Candida tropicalis)	Compound	further results
–	–	–	–	–	–	–	–	–	–	–	–	–	–	–	–	–	CCOC(=O)Cn1ccc(-c2ccccc2)c1C(=O)C(=O)Nc1ccc(N2CCN(c3cc(C)cc(C)n3)CC2)cc1 [Example 73, (2-{4-[4-(4,6-Dimethyl-pyridin-2-yl)-piperazin-1-yl]-phenylaminooxalyl}-3-phenyl-pyrrol-1-yl)-acetic acid ethyl ester]	MIC grade, A. flavus (Aspergillus flavus [1]): 1 (a grade of 1 represents an MIC of greater than 10 mg/L); MIC grade, A. fumigatus 210 [2]: 3 (A grade of 3 represents an MIC of less than 1 mg/L); MIC grade, A. fumigatus [3]: 3 (A grade of 3 represents an MIC of less than 1 mg/L); MIC grade, A. niger (Aspergillus niger [4]): 3 (A grade of 3 represents an MIC of less than 1 mg/L); MIC grade, A. terreus 49 (Aspergillus terreus AT49 [5]): 2 (A grade of 2 represents an MIC of from 1 to 10 mg/L); MIC grade, A. terreus (Aspergillus terreus AT4 [6]): 1 (a grade of 1 represents an MIC of greater than 10 mg/L); MIC grade, A. flavus (Aspergillus flavus [7]): 1 (a grade of 1 represents an MIC of greater than 10 mg/L); MIC grade, A. fumigatus 210 ([8]; MIC banded into grades): 3 (A grade of 3 represents an MIC of less than 1 mg/L); MIC grade, A. fumigatus ([9]; MIC banded into grades): 3 (A grade of 3 represents an MIC of less than 1 mg/L); MIC grade, A. niger (Aspergillus niger [10]): 3 (A grade of 3 represents an MIC of less than 1 mg/L); MIC grade, A. terreus 49 (Aspergillus terreus AT49 [11]; MIC banded into grades): 1 (a grade of 1 represents an MIC of greater than 10 mg/L); MIC grade, A. terreus (Aspergillus terreus AT4 [12]; MIC banded into grades): 1 (a grade of 1 represents an MIC of greater than 10 mg/L); Candida MIC, C. albicans (Candida albicans): 2 (A grade of 2 represents an MIC of from 1 to 10 mg/L); Candida MIC, C. glabrata (Candida glabrata): 3 (A grade of 3 represents an MIC of less than 1 mg/L); Candida MIC, C. krusei (Candida krusei): 2 (A grade of 2 represents an MIC of from 1 to 10 mg/L); Candida MIC, C. parapsilosis (Candida parapsilosis): 2 (A grade of 2 represents an MIC of from 1 to 10 mg/L); Candida MIC, C. tropicalis (Candida tropicalis): 3 (A grade of 3 represents an MIC of less than 1 mg/L)
> 10 µg/mL	> 10 µg/mL	1 to 10 µg/mL (≈ 1.93 to 19.3 µM)	> 10 µg/mL	1 to 10 µg/mL (≈ 1.93 to 19.3 µM)	1 to 10 µg/mL (≈ 1.93 to 19.3 µM)	> 10 µg/mL	> 10 µg/mL	> 10 µg/mL	> 10 µg/mL	> 10 µg/mL	> 10 µg/mL	< 1 µg/mL	< 1 µg/mL	1 to 10 µg/mL (≈ 1.93 to 19.3 µM)	< 1 µg/mL	< 1 µg/mL	COCCn1ccc(CC(C)C)c1C(=O)C(=O)Nc1ccc(N2CCN(c3cc(C)cc(C)n3)CC2)cc1 [Example 68, N-{4-[4-(4,6-Dimethyl-pyridin-2-yl)-piperazin-1-yl]-phenyl}-2-[3-isobutyl-1-(2-methoxy-ethyl)-1H-pyrrol-2-yl]-2-oxo-acetamide]	–
> 10 µg/mL	> 10 µg/mL	> 10 µg/mL	> 10 µg/mL	> 10 µg/mL	> 10 µg/mL	> 10 µg/mL	> 10 µg/mL	> 10 µg/mL	> 10 µg/mL	> 10 µg/mL	> 10 µg/mL	< 1 µg/mL	< 1 µg/mL	< 1 µg/mL	< 1 µg/mL	< 1 µg/mL	COCCn1ccc(-c2ccccc2)c1C(=O)C(=O)Nc1ccccc1 [Example 81, 2-[1-(2-Methoxy-ethyl)-3-phenyl-1H-pyrrol-2-yl]-2-oxo-N-phenyl-acetamide]	–

Source: patent US8993574B2, “Pyrrole antifungal agents” (F2G Ltd, priority 2008, dated 2015)
